Conditions: Gas, Spherical cavity resonance method

C=C(F)C(F)(F)F [2,3,3,3-tetrafluoro-1-propene]
Conditions | speed of sound [m/s]
278.15 K, 25.44 kPa | 148.09
278.15 K, 50.62 kPa | 147.25
278.15 K, 75.68 kPa | 146.39
278.15 K, 101 kPa | 145.51
278.15 K, 201.3 kPa | 141.89
278.15 K, 300.48 kPa | 138.02
293.15 K, 25.29 kPa | 151.93
293.15 K, 50.99 kPa | 151.19
293.15 K, 75.57 kPa | 150.47
293.15 K, 101.23 kPa | 149.72
293.15 K, 201.08 kPa | 146.67
293.15 K, 292.42 kPa | 143.72
293.15 K, 401.24 kPa | 139.99
308.15 K, 25.26 kPa | 155.68
308.15 K, 50.39 kPa | 155.05
308.15 K, 75.5 kPa | 154.42
308.15 K, 100.64 kPa | 153.79
308.15 K, 200.87 kPa | 151.18
308.15 K, 300.85 kPa | 148.47
308.15 K, 398.92 kPa | 145.68
323.15 K, 25.34 kPa | 159.31
323.15 K, 50.23 kPa | 158.76
323.15 K, 75.47 kPa | 158.2
323.15 K, 100.59 kPa | 157.64
323.15 K, 200.87 kPa | 155.39
323.15 K, 300.93 kPa | 153.07
323.15 K, 401.34 kPa | 150.66
338.15 K, 25.37 kPa | 162.84
338.15 K, 50.45 kPa | 162.36
338.15 K, 75.5 kPa | 161.87
338.15 K, 100.77 kPa | 161.37
338.15 K, 200.63 kPa | 159.42
338.15 K, 301.18 kPa | 157.41
338.15 K, 407.01 kPa | 155.23
353.15 K, 25.67 kPa | 166.32
353.15 K, 50.67 kPa | 165.86
353.15 K, 75.38 kPa | 165.44
353.15 K, 100.55 kPa | 165.01
353.15 K, 200.64 kPa | 163.29
353.15 K, 299.53 kPa | 161.57
353.15 K, 401.3 kPa | 159.76

Source: the NIST ThermoML archive (doi:10.1007/s10765-010-0885-7)
